This test relates to cancer cells. Briefly: MTS cell growth inhibition assay (72 hours). The test is classed as cell-based. The procedure, abridged:
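Cells in DMEM with 1% FBS, seeded 18 h, then compound-treated 72 h at 37 °C. Viability by MTS/PMS for 4 h, formazan absorbance at 492 nm; IC50 taken as concentration giving 50% absorbance drop, activity banded by percent inhibition.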

[1] abbreviates: Homo sapiens, DLD-1, 72 h, DLD-1 cells, read-out: DLD-1 MTS 72 hr at 10 μM.
[2] abbreviates: Homo sapiens, KATO III, 72 h, KATO III cells, read-out: KATO III MTS 72 hr at 10 μM.
[3] abbreviates: Homo sapiens, MDA-MB-231, 72 h, MDA-MB-231 cells, read-out: MDA-MB-231 MTS 72 hr at 10 μM.
Setting [4] is: Homo sapiens, NCI-H1299, 72 h, NCI-H1299 cells, read-out: NCI-H1299 MTS 72 hr at 10 μM.
[5] abbreviates: PaCa-2, 72 h, PACA-2 cells, read-out: PACA-2 MTS 72 hr at 10 μM.

SMILES strings stand for the structures. Like-named read-outs stand apart in the source and are kept apart here. Bounds are passed on as bounds.

Take `Nc1nc(NC2CCN(S(=O)(=O)c3ccc(Cl)cc3)c3ccccc3C2)c2cn[nH]c2n1` (stereo not drawn) [Compound 171, N4-{1-[(4-chlorophenyl)sulfonyl]-2,3,4,5-tetrahydro-1H-1-benzazepin-4-yl}-1H-pyrazolo[3,4-d]pyrimidine-4,6-diamine]: the inhibition at 10 µM is < 50% under setting [1]; < 50% under setting [2]; < 50% under setting [3]; < 50% under setting [4]; < 50% under setting [5].

`CCc1ccc(S(=O)(=O)N2CCC(Nc3nc(N)nc4[nH]ncc34)Cc3ccccc32)cc1` (stereo not drawn) [Compound 172, N4-{1-[(4-ethylphenyl)sulfonyl]-2,3,4,5-tetrahydro-1H-1-benzazepin-4-yl}-1H-pyrazolo[3,4-d]pyrimidine-4,6-diamine]: the inhibition at 10 µM is < 50% under setting [1]; < 50% under setting [2]; < 50% under setting [3]; < 50% under setting [4]; < 50% under setting [5].

Regarding `Cc1cc(C)c(S(=O)(=O)N2CCC(Nc3nc(N)nc4[nH]ncc34)Cc3ccccc32)c(C)c1` (stereo not drawn) [Compound 173, N4-[1-(mesitylsulfonyl)-2,3,4,5-tetrahydro-1H-1-benzazepin-4-yl]-1H-pyrazolo[3,4-d]pyrimidine-4,6-diamine], the inhibition at 10 µM reads like this: under setting [1], < 50%; under setting [2], < 50%; under setting [3], < 50%; under setting [4], < 50%; under setting [5], < 50%.

In the case of `Nc1nc(NC2CCN(S(=O)(=O)c3cc(Cl)cc(Cl)c3)c3ccccc3C2)c2cn[nH]c2n1` (stereo not drawn) [Compound 174, N4-{1-[(3,5-dichlorophenyl)sulfonyl]-2,3,4,5-tetrahydro-1H-1-benzazepin-4-yl}-1H-pyrazolo[3,4-d]pyrimidine-4,6-diamine], the inhibition at 10 µM reads like this: under setting [1], 50 to 79%; under setting [2], 50 to 79%; under setting [3], < 50%; under setting [4], < 50%; under setting [5], 50 to 79%.

Turning to `COc1cccc(S(=O)(=O)N2CCC(Nc3nc(N)nc4[nH]ncc34)Cc3ccccc32)c1` (stereo not drawn) [Compound 175, N4-{1-[(3-methoxyphenyl)sulfonyl]-2,3,4,5-tetrahydro-1H-1-benzazepin-4-yl}-1H-pyrazolo[3,4-d]pyrimidine-4,6-diamine], the inhibition at 10 µM reads like this: under setting [1], < 50%; under setting [2], < 50%; under setting [3], < 50%; under setting [4], < 50%; under setting [5], < 50%.

As to `COc1ccc(OC)c(S(=O)(=O)N2CCC(Nc3nc(N)nc4[nH]ncc34)Cc3ccccc32)c1` (stereo not drawn) [Compound 176, N4-{1-[(2,5-dimethoxyphenyl)sulfonyl]-2,3,4,5-tetrahydro-1H-1-benzazepin-4-yl}-1H-pyrazolo[3,4-d]pyrimidine-4,6-diamine], the inhibition at 10 µM is < 50% under setting [1]; < 50% under setting [2]; < 50% under setting [3]; < 50% under setting [4]; < 50% under setting [5].

On to `Cc1ccc(S(=O)(=O)N2CCC(Nc3nc(N)nc4[nH]ncc34)Cc3ccccc32)cc1` (stereo not drawn) [Compound 177, N4-{1-[(4-methylphenyl)sulfonyl]-2,3,4,5-tetrahydro-1H-1-benzazepin-4-yl}-1H-pyrazolo[3,4-d]pyrimidine-4,6-diamine], for which the inhibition at 10 µM reads like this: under setting [1], < 50%; under setting [2], < 50%; under setting [3], < 50%; under setting [4], < 50%; under setting [5], < 50%.

On to `Nc1nc(NC2CCN(S(=O)(=O)c3ccc(Cl)c(Cl)c3)c3ccccc3C2)c2cn[nH]c2n1` (stereo not drawn) [Compound 179, N4-{1-[(3,4-dichlorophenyl)sulfonyl]-2,3,4,5-tetrahydro-1H-1-benzazepin-4-yl}-1H-pyrazolo[3,4-d]pyrimidine-4,6-diamine], for which the inhibition at 10 µM is 50 to 79% under setting [1]; 50 to 79% under setting [2]; < 50% under setting [3]; < 50% under setting [4]; < 50% under setting [5].

Turning to `N#Cc1cccc(S(=O)(=O)N2CCC(Nc3nc(N)nc4[nH]ncc34)Cc3ccccc32)c1` (stereo not drawn) [Compound 180, 3-({4-[(6-amino-1H-pyrazolo[3,4-d]pyrimidin-4-yl)amino]-2,3,4,5-tetrahydro-1H-1-benzazepin-1-yl}sulfonyl)benzonitrile], the inhibition at 10 µM under setting [1] was < 50%; the inhibition at 10 µM under setting [2] is < 50%; the inhibition at 10 µM under setting [3] was < 50%; the inhibition at 10 µM under setting [4] is < 50%; the inhibition at 10 µM under setting [5] was < 50%.

Regarding `Nc1nc(NC2CCN(S(=O)(=O)c3ccc(F)c(Cl)c3)c3ccccc3C2)c2cn[nH]c2n1` (stereo not drawn) [Compound 181, N4-{1-[(3-chloro-4-fluorophenyl)sulfonyl]-2,3,4,5-tetrahydro-1H-1-benzazepin-4-yl}-1H-pyrazolo[3,4-d]pyrimidine-4,6-diamine], the inhibition at 10 µM is, setting by setting: under setting [1], < 50%; under setting [2], < 50%; under setting [3], < 50%; under setting [4], < 50%; under setting [5], 50 to 79%.

Regarding `Nc1nc(NC2CCN(S(=O)(=O)c3ccc(F)c(F)c3)c3ccccc3C2)c2cn[nH]c2n1` (stereo not drawn) [Compound 182, N4-{1-[(3,4-difluorophenyl)sulfonyl]-2,3,4,5-tetrahydro-1H-1-benzazepin-4-yl}-1H-pyrazolo[3,4-d]pyrimidine-4,6-diamine], the inhibition at 10 µM under setting [1] was < 50%; the inhibition at 10 µM under setting [2] was < 50%; the inhibition at 10 µM under setting [3] is < 50%; the inhibition at 10 µM under setting [4] is < 50%; the inhibition at 10 µM under setting [5] is < 50%.

Take `Nc1nc(NC2CCN(S(=O)(=O)c3ccc(F)cc3)c3ccccc3C2)c2cn[nH]c2n1` (stereo not drawn) [Compound 183, N4-{1-[(4-fluorophenyl)sulfonyl]-2,3,4,5-tetrahydro-1H-1-benzazepin-4-yl}-1H-pyrazolo[3,4-d]pyrimidine-4,6-diamine]: the inhibition at 10 µM is < 50% under setting [1]; < 50% under setting [2]; < 50% under setting [3]; < 50% under setting [4]; < 50% under setting [5].

In the case of `Cc1ccc(C)c(S(=O)(=O)N2CCC(Nc3nc(N)nc4[nH]ncc34)Cc3ccccc32)c1` (stereo not drawn) [Compound 184, N4-{1-[(2,5-dimethylphenyl)sulfonyl]-2,3,4,5-tetrahydro-1H-1-benzazepin-4-yl}-1H-pyrazolo[3,4-d]pyrimidine-4,6-diamine], the inhibition at 10 µM is, setting by setting: under setting [1], < 50%; under setting [2], < 50%; under setting [3], < 50%; under setting [4], < 50%; under setting [5], < 50%.

As to `Nc1nc(NC2CCN(S(=O)(=O)c3ccc(OC(F)(F)F)cc3)c3ccccc3C2)c2cn[nH]c2n1` (stereo not drawn) [Compound 185, N4-(1-{[4-(trifluoromethoxy)phenyl]sulfonyl}-2,3,4,5-tetrahydro-1H-1-benzazepin-4-yl)-1H-pyrazolo[3,4-d]pyrimidine-4,6-diamine], the inhibition at 10 µM is, setting by setting: under setting [1], < 50%; under setting [2], < 50%; under setting [3], < 50%; under setting [4], < 50%; under setting [5], < 50%.

As for `Nc1nc(NC2CCN(S(=O)(=O)c3ccc(C(F)(F)F)cc3)c3ccccc3C2)c2cn[nH]c2n1` (stereo not drawn) [Compound 186, N4-(1-{[4-(trifluoromethyl)phenyl]sulfonyl}-2,3,4,5-tetrahydro-1H-1-benzazepin-4-yl)-1H-pyrazolo[3,4-d]pyrimidine-4,6-diamine], the inhibition at 10 µM was < 50% under setting [1]; < 50% under setting [2]; < 50% under setting [3]; < 50% under setting [4]; < 50% under setting [5].

As to `Nc1nc(NC2CCN(S(=O)(=O)c3cccc4c(Cl)cccc34)c3ccccc3C2)c2cn[nH]c2n1` (stereo not drawn) [Compound 187, N4-{1-[(5-chloro-1-naphthyl)sulfonyl]-2,3,4,5-tetrahydro-1H-1-benzazepin-4-yl}-1H-pyrazolo[3,4-d]pyrimidine-4,6-diamine], the inhibition at 10 µM is, setting by setting: under setting [1], 50 to 79%; under setting [2], 50 to 79%; under setting [3], < 50%; under setting [4], < 50%; under setting [5], 50 to 79%.

In the case of `Nc1nc(NC2Cc3ccccc3N(S(=O)(=O)c3ccc(NC(=O)Nc4ccc(C(F)(F)F)cc4)cc3)C2)c2cn[nH]c2n1` (stereo not drawn) [Compound 188, 1-[4-({3-[(6-amino-1H-pyrazolo[3,4-d]pyrimidin-4-yl)amino]-3,4-dihydroquinolin-1(2H)-yl}sulfonyl)phenyl]-3-[4-(trifluoromethyl)phenyl]urea], the inhibition at 10 µM was > 79% under setting [1]; > 79% under setting [2]; > 79% under setting [3]; > 79% under setting [4]; > 79% under setting [5].

For `Nc1nc(NC2Cc3ccccc3N(S(=O)(=O)c3ccc(NC(=O)Nc4ccc5ccccc5c4)cc3)C2)c2cn[nH]c2n1` (stereo not drawn) [Compound 189, 1-[4-({3-[(6-amino-1H-pyrazolo[3,4-d]pyrimidin-4-yl)amino]-3,4-dihydroquinolin-1(2H)-yl}sulfonyl)phenyl]-3-(2-naphthyl)urea], the inhibition at 10 µM was > 79% under setting [1]; > 79% under setting [2]; > 79% under setting [3]; > 79% under setting [4]; > 79% under setting [5].
